Experimental findings from paper PMC12000511, “Molecular basis for the assembly of the Vps5-Vps17 SNX-BAR proteins with Retromer” (Nature Communications, 2025) are described below.

The target of one experiment is ctRetromer (Thermochaetoides thermophila, UniProt G0RZB5+G0S709). Kind of experiment: ITC, binding to ctRetromer. On the set-up: species or system Chaetomium thermophilum. The protocol: (§1) All the bacterial constructs were expressed in BL21(DE3) competent cells using standard isopropyl 1-thio-β-D-galactopyranoside induction or autoinduction method as described previously[39],[72],[73]. To obtain the Retromer trimer complex, the GST-tagged Vps29 and Vps35 co-expressed cell pellet were mixed with His-Vps26 and resuspended in lysis buffer containing 50 mM Tris-HCl pH 7.5, 200 mM NaCl, 5% glycerol, 50 μg/ml benzamidine and DNase I before passed through a Constant System TS-Series cell disruptor. […] For all constructs, the lysate was clarified by centrifugation and the supernatant was loaded onto either Talon® resin (Clonetech) or glutathione sepharose (GE healthcare) for initial purification. To obtain the correct stoichiometry ratio of the Retromer complex, both Talon® resin and glutathione sepharose (GE healthcare) were applied. […] The flow-through containing complex was further purified using size-exclusion chromatography (SEC) equilibrated with a buffer containing 50 mM Tris-HCl pH 7.5, 200 mM NaCl, 2 mM β-ME. […] To avoid the non-specific cleavage by the residual proteases such as thrombin, a tablet of protease inhibitor cocktail was added into the complex mixture. To remove the unbound fractions, the complex mixture was further purified using Superose 6 increase 10/300 GL column using the SEC buffer described above.
In brief, the clarified lysate was loaded onto glutathione sepharose (GE healthcare) and eluted using elution buffer containing 50 mM Tris-HCl pH 7.5, 200 mM NaCl, 5% glycerol, 20 mM glutathione reduced and 50 μg/ml benzamidine. The flow-through was further purified using SEC as the final purification step. To avoid the degradation, the constructs containing N-terminal disordered parts of Vps5 and Vps17 were used in fresh and experiments were finished within 3 days after purification.
(§2) All the proteins used for ITC experiments were prepared in buffer containing 50 mM Tris-HCl pH 7.5, 200 mM NaCl, 2 mM β-ME. […] In all cases, the ITC titration sequence consisted of an initial 0.4 μl (not used in data processing) followed by 12 serial injections of 3.22 μl each with 180 s intervals. The resulting titration data were integrated with Malvern software package by fitting and normalized data to a single-site binding model, yielding the thermodynamic parameters Kd, ∆H, ∆G and −T∆S for all binding experiments. The stoichiometry was refined initially, and if the value was close to 1, then N was set to exactly 1.0 for calculation. Data presented are the mean of triplicate titrations for each experiment.

Experiment [1] has as its target ctRetromer (Chaetomium thermophilum Retromer trimer of ctVps35, ctVps26 and ctVps29) (Chaetomium thermophilum). Kind of experiment: ITC; Microcal PEAQ ITC, 25 °C, 50 mM Tris-HCl pH 7.5, 200 mM NaCl, 2 mM β-ME; Vps5/Vps17/SNX1 construct or peptide (200-400 µM) titrated into 10-15 µM Retromer or Vps29; single-site model, N set to 1.0 if close to 1. On the technique in general: Isothermal titration calorimetry measures the heat released or taken up as one component is titrated into another.

For a further experiment, the target named is T1, mVps29 (Mus musculus, UniProt Q9QZ88).
T1 construct: GST (thrombin site) (N, cleaved yes); made in house; host or cells: E. coli BL21(DE3)
Kind of experiment: ITC, binding to mVps29. To be noted: ITC, mVps29. Here is the method:
as §1, §2

Experiment [2] deals with mouse VPS29 (mVPS29), long isoform (mouse). Kind of experiment: ITC; Microcal PEAQ ITC, 25 °C, 50 mM Tris-HCl pH 7.5, 200 mM NaCl, 2 mM β-ME; Vps5/Vps17/SNX1 construct or peptide (200-400 µM) titrated into 10-15 µM Retromer or Vps29; single-site model, N set to 1.0 if close to 1.
The test system of experiment [3] is scRetromer and scSNX-BAR on supported membrane tubes. Kind of experiment: Supported membrane tube (SMT) assay. It is filed as biochemical, Saccharomyces cerevisiae. Particulars: scSNX-BAR and scRetromer on SMTs containing 5% PtdIns(3)P.
Protocol: Supported membrane tubes were generated as described[46]. Briefly, glass coverslips were first washed with 3 M NaOH for 5 min and rinsed with water before a 60 min treatment with piranha solution (95% H2SO4/30% H2O2 3:2 v/v). Coverslips were rinsed with water and dried on a heat block at 90 °C. Coverslips were then silanized with 3-glycidyloxypropyltrimethoxysilane (Catalogue no. 440167, Sigma) for 5 h under vacuum, rinsed with acetone and dried. Polyethylene glycol coating was done by placing the coverslips in a beaker containing PEG400 (Sigma) at 90 °C for 60 h. Coverslips were washed with distilled water and stored for up to 2 months at room temperature in a closed container.
To generate supported membrane tubes, lipids were mixed from 10 mg/mL stocks in a glass vial and diluted to a final concentration of 1 mg/mL in chloroform. The same lipid mix was used throughout this study (5% PI(3)P, 15% DOPS, 0.1% fluorescent lipid tracer (Cy5.5 PE or Texas red DHPE), 79.5% egg-PC). Lipids were then spotted (typically 1 µL, corresponding to about 1 nmol) on the coverslips and dried for 30 min under vacuum. The coverslip was mounted on an IBIDI 6-channel µ-slide (µ-Slide VI 0.4. IBIDI, catalog no: 80606). Lipids were hydrated for 15 min with buffer (PBS) and SMTs were generated by injecting PBS into the chamber using an Aladdin Single-Syringe Pump (World Precision Instruments, model n°. AL-1000) at a flow rate of 1,5 mL/min for 5 min. SMTs were left to stabilize without flow for 5 min before the start of the experiment. Protein stocks (typically 1–2 µM) were first diluted in PBS and then injected in the chamber at a flow rate of 80 µL per minute. Cyclic peptides were added to the proteins from a 30 mM stock in DMSO to a final concentration of 300 µM. the protein/peptide mix was incubated for 1 min at room temp (23 °C) before being added to the SMTubes.
A further experiment deals with T2, hRetromer (Homo sapiens, UniProt Q96QK1+Q9UBQ0).
T2 construct: GST (N); made in house; host or cells: E. coli BL21(DE3) (general statement for bacterial constructs)
Kind of experiment: ITC, binding to hRetromer. Particulars: for binding to hRetromer: ITC, same conditions as ctRetromer. The protocol: as §1, §2

[4] abbreviates: ITC, ctRetromer, Average of 3 batches.
[5] abbreviates: ctRetromer alone, ITC 25 °C, pH 7.5, 200 mM NaCl, mean of triplicate titrations.

Where two headings read alike, the source gives them in different places. Where no end group is shown, it is not given here.

As a reminder, the Kd is the free concentration of one partner at which half of the binding sites on the other are occupied at equilibrium, for simple one-to-one binding.

ctRetromer, sequence (G0RZB5 entry or part of it): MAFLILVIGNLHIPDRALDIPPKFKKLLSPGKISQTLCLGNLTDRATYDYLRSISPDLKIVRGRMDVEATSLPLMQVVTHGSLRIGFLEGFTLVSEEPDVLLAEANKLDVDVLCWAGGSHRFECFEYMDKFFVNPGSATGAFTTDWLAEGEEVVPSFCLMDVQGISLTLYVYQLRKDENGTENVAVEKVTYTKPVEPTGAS
ctRetromer, sequence (G0S709 entry or part of it): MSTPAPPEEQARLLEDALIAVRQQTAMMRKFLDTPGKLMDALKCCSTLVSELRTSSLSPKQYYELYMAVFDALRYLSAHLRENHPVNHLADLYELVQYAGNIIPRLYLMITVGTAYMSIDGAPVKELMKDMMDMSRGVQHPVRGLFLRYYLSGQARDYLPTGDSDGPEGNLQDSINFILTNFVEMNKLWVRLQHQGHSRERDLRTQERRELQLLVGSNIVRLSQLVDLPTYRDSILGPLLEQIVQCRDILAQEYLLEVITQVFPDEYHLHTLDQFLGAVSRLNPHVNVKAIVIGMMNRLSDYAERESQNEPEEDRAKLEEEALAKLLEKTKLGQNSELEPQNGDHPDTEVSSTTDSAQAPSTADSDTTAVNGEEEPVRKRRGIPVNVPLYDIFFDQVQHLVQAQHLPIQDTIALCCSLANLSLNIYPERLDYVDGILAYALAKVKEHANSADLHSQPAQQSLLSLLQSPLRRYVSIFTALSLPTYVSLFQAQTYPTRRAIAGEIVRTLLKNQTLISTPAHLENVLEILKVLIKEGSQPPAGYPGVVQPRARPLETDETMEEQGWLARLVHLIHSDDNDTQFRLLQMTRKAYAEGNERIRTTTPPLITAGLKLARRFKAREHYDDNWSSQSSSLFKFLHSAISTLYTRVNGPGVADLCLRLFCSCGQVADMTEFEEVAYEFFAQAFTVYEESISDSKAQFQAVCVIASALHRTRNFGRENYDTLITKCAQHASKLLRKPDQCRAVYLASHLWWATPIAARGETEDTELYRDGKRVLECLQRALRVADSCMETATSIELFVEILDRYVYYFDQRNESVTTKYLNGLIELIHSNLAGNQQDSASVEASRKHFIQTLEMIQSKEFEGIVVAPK
ctRetromer, sequence (G0S0E6 entry or part of it, further chain): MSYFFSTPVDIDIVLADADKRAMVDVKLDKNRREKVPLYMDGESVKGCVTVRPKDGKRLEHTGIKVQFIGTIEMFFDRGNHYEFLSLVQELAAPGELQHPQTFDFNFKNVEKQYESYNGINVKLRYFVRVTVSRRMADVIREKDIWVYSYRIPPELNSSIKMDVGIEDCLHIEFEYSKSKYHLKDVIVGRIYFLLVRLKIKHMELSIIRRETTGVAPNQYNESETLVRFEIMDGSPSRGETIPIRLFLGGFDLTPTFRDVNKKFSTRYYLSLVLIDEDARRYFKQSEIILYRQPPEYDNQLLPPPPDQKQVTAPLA

As to “SRATPRRIVAKPKSLEAVEDDPLGPLGA [ctVps5_53–80 peptide]”, at ctRetromer (read-out: Kd), the Kd was determined as 0.74 ± 0.05 µM.

As for GST-ctVps5_(1–50) (domain or fragment), in experiment [1], the dissociation constant (Kd) amounted to 40.1 µM and the dH was -11.3 kJ/mol.

In the case of EDDPLGPLGA [ctVPS5 71 to 80], the “Delta G” value on mVps29 (Average of 3 batches) is -24.3 kJ/mol; on mVps29 (Batch 1), -24.8 kJ/mol; on mVps29 (Batch 2) it was -24.3 kJ/mol; on mVps29 (Batch 3) it was -24.4 kJ/mol. In addition, the “Delta H” value at mVps29 (Average of 3 batches) was -33.5 kJ/mol; at mVps29 (Batch 1) it was -29.2 kJ/mol; at mVps29 (Batch 2), -37.9 kJ/mol; at mVps29 (Batch 3), -32.7 kJ/mol. In addition, the Kd result is on record as “No binding” on ctRetromer (ITC, ctRetromer, Batch 1); “No binding” on ctRetromer (ITC, ctRetromer, Batch 2); “No binding” at ctRetromer (ITC, ctRetromer, Batch 3).

Take ctVps5_(71–80) peptide: in experiment [2], the dissociation constant Kd amounted to 54.1 µM and the dH is -33.5 kJ/mol.

For GST-ctVps5_(1–185) (domain or fragment), in experiment [2], the Kd was 4.82 µM and the dH is -3.81 kJ/mol. In addition, in experiment [1], the Kd is 0.72 µM and the dH is -13 kJ/mol.

In the case of “SRATPRRIVAKPKSLEAVEDDPLGPLGA [ctVPS5 53 to 80]”, the “Delta G” value at ctRetromer (setting [4]) was -35.1 kJ/mol; on ctRetromer (ITC, ctRetromer, Batch 1) it was -35.1 kJ/mol; on ctRetromer (ITC, ctRetromer, Batch 2) it was -34.9 kJ/mol; at ctRetromer (ITC, ctRetromer, Batch 3), -35.1 kJ/mol. In addition, the “Delta H” value at ctRetromer (setting [4]) was -11.8 kJ/mol; at ctRetromer (ITC, ctRetromer, Batch 1), -14.4 kJ/mol; at ctRetromer (ITC, ctRetromer, Batch 2), -10.2 kJ/mol; at ctRetromer (ITC, ctRetromer, Batch 3) it was -11 kJ/mol. Besides, the “minus T delta S” value at ctRetromer (setting [4]) is -23.3 kJ/mol; on ctRetromer (ITC, ctRetromer, Batch 1), -20.5 kJ/mol; on ctRetromer (ITC, ctRetromer, Batch 2), -25 kJ/mol; at ctRetromer (ITC, ctRetromer, Batch 3), -24.5 kJ/mol.

As for “scRetromer-mRuby: purified recombinant scRetromer carrying mRuby”, the “coat formation / recruitment on SMTs” value in experiment [3] is given as “co-recruited to the tubes within a minute after their addition”.

On to “GST-ctVps5_(51–100) PL74AA (domain or fragment)”, for which, in experiment [1], the Kd was determined as 5.04 µM and the dH is -7.36 kJ/mol.

On to “GST-ctVps5_61–80: GST-tagged ctVps5 residues 61–80 (VAKPKSLEAVEDDPLGPLGA; not fully specified (N-terminus); also: GST fusion, end not given here)”, for which, in the experiment with ctRetromer (ITC 25 °C, pH 7.5, 200 mM NaCl), the “binding to ctRetromer” value is given as “bind very weakly”. Moreover, in the experiment with ctRetromer (setting [5]), the ΔG was -24.1 ± 0.502 kJ/mol, the ΔH is -30.2 ± 8.12 kJ/mol and the “−TΔS” value is 6.07 ± 8.66 kJ/mol. Also, the dissociation constant Kd with ctRetromer (ctRetromer alone, Microcal PEAQ ITC, 25 °C, 50 mM Tris-HCl pH 7.5, 200 mM NaCl, 2 mM β-ME, single-site model, mean of triplicate titrations, read-out: Kd) came out at 60.1 ± 12.2 µM.

B1: GST-mSNX1_1–139: SNX1 N-terminal residues 1–139 (protein)
chain: MASGGGGCSASERLPPPFPGLEPESEGAAGGSEPEAGDSDTEGEDIFTGAAVVSKHQSPKITTSLLPINNGSKENGIHEEQDQEPQDLFADATVELSLDSTQNNQKKVLAKTLISLPPQEATNSSKPQPTYEELEEEEQ
modifications: left off: GST, end not stated, kept
With B1, the Kd result with hRetromer (ITC 25 °C, 50 mM Tris-HCl pH 7.5, 200 mM NaCl, 2 mM β-ME, mean of triplicate titrations) is listed as “No binding detected”. Also, the “binding to hRetromer” value with hRetromer (listed as GST-hSNX1_1–139) is reported as “no detectable interaction”; with hRetromer (listed as human SNX1), “no detectable association”.

B2: GST-ctVps5_(61–80) (domain or fragment)
chain: VAKPKSLEAVEDDPLGPLGA
modifications: also: GST fusion
As for B2, in experiment [1], the Kd amounted to 60.1 µM and the dH is -30.2 kJ/mol.

B3: scSNX-BAR-GFP: scVps5–scVps17 heterodimer tagged with GFP (protein)
chain 1: MDYEDNLEAPVWDELNHEGDKTQSLVSNSIESIGQISTNEERKDNELLETTASFADKIDLDSAPEWKDPGLSVAGNPQLEEHDNSKADDLINSLAPEQDPIADLKNSTTQFIATRESGGALFTGNANSPLVFDDTIYDANTSPNTSKSISGRRSGKPRILFDSARAQRNSKRNHSLKAKRTTASDDTIKTPFTDPLKKAEKENEFVEEPLDDRNERRENNEGKFTASVEKNILEQVDRPLYNLPQTGANISSPAEVEENSEKFGKTKIGSKVPPTEKAVAFKVEVKDPVKVGELTSIHVEYTVISESSLLELKYAQVSRRYRDFRWLYRQLQNNHWGKVIPPPPEKQSVGSFKENFIENRRFQMESMLKKICQDPVLQKDKDFLLFLTSDDFSSESKKRAFLTGSGAINDSNDLSEVRISEIQLLGAEDAAEVLKNGGIDAESHKGFMSISFSSLPKYNEADEFFIEKKQKIDELEDNLKKLSKSLEMVDTSRNTLAASTEEFSSMVETLASLNVSEPNSELLNNFADVHKSIKSSLERSSLQETLTMGVMLDDYIRSLASVKAIFNQRSKLGYFLVVIENDMNKKHSQLGKLGQNIHSEKFREMRKEFQTLERRYNLTKKQWQAVGDKIKDEFQGFSTDKIREFRNGMEISLEAAIESQKECIELWETFYQTNL
chain 2: MTSAVPYDPYDDLDNNPFAEPQEEDSEPAATTTDGSSSMSEERVGTEQTAASVQDNGTANNIQNGLGEEGNATRSKTSNEHNENQQPSQPSERVILPERSDEKKKYTLLAKVTGLERFGSATGKKENPTIIFDCSTNLPTFRKQQYKNVKKSYEEFHQLFKYLNVAIQESFVPTLPSAYTTFGINSEEDRMKVTRNFQLWFNRLSQDPLIIRNEEVAFFIESDFNTYTPINKSKSLASGLKRKTLKQLAPPYDEITELAEFRPLVKSIYVVSQSLQEKLLRVSRNRKMMVQEENAFGQDFVNLDEHNKLYRRYGKILTAVGDIDSIIATMDMATLYDGLEWIVRDAYAVKEALTNRHFIMRNLVQAQQNSKAKQEQARRFRSRRDINPMKIDEALRQLKAAAKNEQVLTLKLQRITSNMIIERKQWISWYEEWIRSSIKEFTLRKIEYERKKLTLLERVRSDIRKADENGGLSRLGRHAVSNNNSDTSQTLKGDSWTGESNRKSQIPINKIAHTEFDDELFTEDDGYNSQDSDTTSLNARHAASLLGMSTK
For B3, the “coat formation / recruitment on SMTs” value in experiment [3] is recorded as “co-recruited to the tubes within a minute after their addition”.

B4: ctVps5_(53–80) peptide (peptide)
peptide: SRATPRRIVAKPKSLEAVEDDPLGPLGA
Take B4: in experiment [1], the Kd is 0.74 µM and the dH was -11.8 kJ/mol.
